Assay results: patent US20250195521A1 (Revolution Medicines, Inc., priority 2020, published 2025)
Where two headings read alike, the source gives them in different places.

What was measured:
[1] = system: NCI-H358 cells (K-Ras G12C); assay: CellTiter-Glo cell viability, NCI-H358; assay type: cell-based, human; settings: Homo sapiens, NCI-H358, 120 h, K-Ras G12C, 5-day treatment; read-out: H358 Cell Viability IC50
How it was run: (§1)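 Viability read by luminescence on day 5 after direct compound addition to cells, following ~30 min room-temperature equilibration. Values expressed as percent of mean DMSO signal, curves fitted with a four-parameter logistic model.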

[2] = system: Capan-1 cells (K-Ras G12V); assay: CellTiter-Glo cell viability, Capan-1; assay type: cell-based, human; settings: K-Ras G12V, 5-day treatment, read-out: Capan-1 Cell Viability IC50
How it was run: as §1

KRAS G12C = KRAS G12C (Homo sapiens (Human), UniProt P01116+P62937, G12C); assay: Ras-Raf disruption/FRET/MOA assay (BRAF RBD, Cyclophilin A); assay type: biochemical; settings: read-out: KRAS G12C FRET IC50
How it was run: (§2)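 25 μM tagless Cyclophilin A, 12.5 nM His6-Ras-GMPPNP and 50 nM GST-BRAF RBD in HEPES pH 7.3 buffer with 5 mM MgCl2, with compound (10-point 3-fold series from 30 μM final) for 3 h at 25 °C. Anti-His Eu and anti-GST APC then added for 1.5 h. IC50 from TR-FRET ratio decrease versus DMSO.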

KRAS G12D = KRAS G12D (Homo sapiens (Human), UniProt P01116+P62937, G12D); assay: as above; assay type: biochemical; settings: read-out: KRAS G12D FRET IC50
How it was run: as §2

KRAS G12S = KRAS G12S (Homo sapiens (Human), UniProt P01116+P62937, G12S); assay: as above; assay type: biochemical; settings: read-out: KRAS G12S FRET IC50
How it was run: as §2

KRAS G12V = KRAS G12V (Homo sapiens (Human), UniProt P01116+P62937, G12V); assay: as above; assay type: biochemical; settings: read-out: KRAS G12V FRET IC50
How it was run: as §2

KRAS G13C = KRAS G13C (Homo sapiens (Human), UniProt P01116+P62937, G13C); assay: as above; assay type: biochemical; settings: read-out: KRAS G13C FRET IC50
How it was run: as §2

KRAS G13D = KRAS G13D (Homo sapiens (Human), UniProt P01116+P62937, G13D); assay: as above; assay type: biochemical; settings: read-out: KRAS G13D FRET data IC50
How it was run: as §2

KRAS WT = KRAS WT (Homo sapiens (Human), UniProt P01116+P62937); assay: as above; assay type: biochemical; settings: read-out: KRAS WT FRET data IC50
How it was run: as §2

NRAS G12C = NRAS G12C (Homo sapiens (Human), UniProt P01111+P62937, G12C); assay: as above; assay type: biochemical; settings: read-out: NRAS G12C FRET data IC50
How it was run: (§3)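 Ras-GMPPNP (12.5 nM), BRAF RBD (50 nM) and 25 μM Cyclophilin A were incubated with compound for 3 h at 25° C, then detected 1.5 h with anti-His Eu and anti-GST APC; IC50 values follow from the reduced TR-FRET ratio.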

NCI-H358 (K-Ras G12C) = assay: CellTiter-Glo cell viability assay, NCI-H358; assay type: cell-based, human; settings: 5-day treatment, read-out: H358 Cell Viability assay data (K-Ras G12C, IC50)
How it was run: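 Viability read-out was luminescent (CellTiter-Glo) on day 5 of compound exposure in K-Ras G12C NCI-H358 cells. Values were expressed as percent of mean DMSO signal and fitted with a four-parameter logistic curve.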

[3] = molecular target: K-Ras G12C(GMP-PNP) binding to BRAF RBD (Homo sapiens (Human), UniProt P01116+P62937, G12C); assay: Disruption of BRAF RBD interaction with K-Ras (FRET / MOA assay), K-Ras G12C; assay type: biochemical; settings: read-out: KRAS G12C FRET IC50
How it was run: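 Compounds promote ternary complex of nucleotide-loaded Ras (here K-Ras G12C·GMP-PNP; other Ras mutants substituted) with cyclophilin A, disrupting BRAF RBD binding. 10-point 3-fold series from 30 μM final, 3 h at 25 °C, then anti-His Eu (10 nM) and anti-GST APC (50 nM) for 1.5 h. TR-FRET ratio decrease versus DMSO gave IC50.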

KRAS Q61H = KRAS Q61H (Homo sapiens (Human), UniProt P01116+P62937, Q61H); assay: Ras-Raf disruption/FRET/MOA assay (BRAF RBD, Cyclophilin A); assay type: biochemical
How it was run: as §2

NRAS WT = NRAS WT (Homo sapiens (Human), UniProt P01111+P62937); assay: as above; assay type: biochemical
How it was run: as §3

[4] = system: K-Ras G12C (NCI-H358 cells); assay: Potency assay: pERK in NCI-H358 cells; assay type: cell-based, human; settings: NCI-H358 cells, 4 hours, read-out: pERK EC50 (H358 KRAS G12C)
How it was run: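 Cells plated the day before were exposed for 4 h at 37° C, 5% CO2 to a 10-point, 3-fold DMSO dilution series (10 mM top stock), in duplicate. Phospho-ERK was read by AlphaLISA SureFire Ultra or by In-Cell Western with DRAQ5 DNA stain, and IC50 came from a 4-parameter sigmoidal fit.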

Sequence of NRAS G12C (P01111 whole entry G12C): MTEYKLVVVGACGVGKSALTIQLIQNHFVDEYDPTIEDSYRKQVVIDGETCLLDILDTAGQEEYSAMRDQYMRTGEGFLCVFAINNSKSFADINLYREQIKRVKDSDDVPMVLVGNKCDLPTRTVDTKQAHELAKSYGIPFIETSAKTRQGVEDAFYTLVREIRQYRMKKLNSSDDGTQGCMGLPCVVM
Sequence of NRAS G12C (P62937 whole entry): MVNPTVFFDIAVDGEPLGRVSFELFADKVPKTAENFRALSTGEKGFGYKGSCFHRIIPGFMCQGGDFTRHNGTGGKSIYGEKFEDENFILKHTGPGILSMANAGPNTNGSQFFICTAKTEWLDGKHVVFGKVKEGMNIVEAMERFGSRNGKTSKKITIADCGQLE
Sequence of NRAS WT (P01111 whole entry): as the sequence (P01111 whole entry G12C) above, with C12G counted along it
Sequence of NRAS WT (P62937 whole entry): as the sequence (P62937 whole entry) above

CCn1c(-c2cccnc2[C@H](C)OC)c2c3cc(ccc31)-c1cc(O)cc(c1)C[C@H](NC(=O)[C@H](C(C)C)N(C)C(=O)[C@H]1C[C@@H]1F)C(=O)N1CCC[C@H](N1)C(=O)OCC(C)(C)C2 [Compound A161]
0.1 to 1 µM: IC50 [1] | IC50 ([2]; Homo sapiens, CAPAN-1, 120 h) | IC50 (KRAS G12C) | IC50 (KRAS G12D) | IC50 (KRAS G12S) | IC50 (KRAS G12V) | IC50 (KRAS G13C) | IC50 (KRAS G13D) | IC50 (KRAS WT) | IC50 (NRAS G12C) | IC50 [3]
> 10 µM: IC50 (NCI-H358 (K-Ras G12C); Homo sapiens, NCI-H358, 120 h)

CCn1c(-c2cccnc2[C@H](C)OC)c2c3cc(ccc31)-c1cc(O)cc(c1)C[C@H](NC(=O)[C@H](C(C)C)N(C)C(=O)[C@@H]1[C@@H]3CNC[C@@H]31)C(=O)N1CCC[C@H](N1)C(=O)OCC(C)(C)C2 [Compound A164]
0.01 to 0.1 µM: IC50 [1] | IC50 (KRAS G12C) | IC50 (KRAS G12D) | IC50 (KRAS G12S) | IC50 (KRAS G12V) | IC50 (KRAS G13C) | IC50 (KRAS G13D) | IC50 (KRAS WT) | IC50 (NRAS G12C) | IC50 [3]
0.1 to 1 µM: IC50 ([2]; Homo sapiens, CAPAN-1, 120 h) | IC50 (NCI-H358 (K-Ras G12C); Homo sapiens, NCI-H358, 120 h)

CCn1c(-c2cccnc2[C@H](C)OC)c2c3cc(ccc31)-c1cc(O)cc(c1)C[C@H](NC(=O)[C@H](C(C)C)N(C)C(=O)[C@H]1CN[C@@H]3CCO[C@H]13)C(=O)N1CCC[C@H](N1)C(=O)OCC(C)(C)C2 [Compound A231]
0.01 to 0.1 µM: IC50 (KRAS G12C) | IC50 (KRAS G12D) | IC50 (KRAS G13C) | IC50 (KRAS G13D) | IC50 (KRAS WT) | IC50 (NRAS G12C)
> 10 µM: IC50 (NCI-H358 (K-Ras G12C); Homo sapiens, NCI-H358, 120 h) | IC50 [3]
1 to 10 µM: IC50 ([2]; Homo sapiens, CAPAN-1, 120 h)
0.1 to 1 µM: IC50 [1] | IC50 (KRAS G12S) | IC50 (KRAS G12V)

CCn1c(-c2cccnc2[C@H](C)OC)c2c3cc(ccc31)-c1csc(n1)C[C@H](NC(=O)[C@H](C(C)C)N(C)C(=O)N1CC([C@@H](C)OC)C1)C(=O)N1CCC[C@H](N1)C(=O)OCC(C)(C)C2 [Compound A278]
0.01 to 0.1 µM: IC50 ([2]; Homo sapiens, CAPAN-1, 120 h) | IC50 (KRAS G12C) | IC50 (KRAS G12V) | IC50 (KRAS Q61H) | IC50 (KRAS WT) | IC50 (NRAS G12C)
0.1 to 1 µM: IC50 (KRAS G12D) | IC50 (KRAS G12S) | IC50 (KRAS G13C) | IC50 (KRAS G13D)

CCn1c(-c2cccnc2[C@H](C)OC)c2c3cc(ccc31)-c1csc(n1)C[C@H](NC(=O)[C@H](C(C)C)N(C)C(=O)N1C[C@@H]3C[C@H]1CN3C)C(=O)N1CCC[C@H](N1)C(=O)OCC(C)(C)C2 [Compound A314]
0.1 to 1 µM: IC50 [1] | IC50 ([2]; Homo sapiens, CAPAN-1, 120 h) | IC50 (KRAS G12C) | IC50 (KRAS G12D) | IC50 (KRAS G12S) | IC50 (KRAS G12V) | IC50 (KRAS G13C) | IC50 (KRAS G13D) | IC50 (KRAS WT) | IC50 (NRAS G12C) | IC50 (NCI-H358 (K-Ras G12C); Homo sapiens, NCI-H358, 120 h) | IC50 [3]

CCn1c(-c2cccnc2[C@H](C)OC)c2c3cc(ccc31)-c1cc(O)cc(c1)C[C@H](NC(=O)[C@H](C(C)C)N(C)C(=O)N1CC(OC)C1)C(=O)N1CCC[C@H](N1)C(=O)OCC(C)(C)C2 [Compound A364]
0.01 to 0.1 µM: IC50 [1] | IC50 ([2]; Homo sapiens, CAPAN-1, 120 h) | IC50 (KRAS G12C) | IC50 (KRAS G13C) | IC50 (NRAS G12C)
0.1 to 1 µM: IC50 (KRAS G12D) | IC50 (KRAS G12S) | IC50 (KRAS G12V) | IC50 (KRAS G13D) | IC50 (KRAS WT) | IC50 (NCI-H358 (K-Ras G12C); Homo sapiens, NCI-H358, 120 h) | IC50 [3]

CCn1c(-c2cccnc2[C@H](C)OC)c2c3cc(ccc31)-c1cc(O)cc(c1)C[C@H](NC(=O)[C@H](C(C)C)N(C)C(=O)[C@@H]1OCC[C@@H]1c1ccccc1)C(=O)N1CCC[C@H](N1)C(=O)OCC(C)(C)C2 [Compound A415]
0.01 to 0.1 µM: IC50 [1] | IC50 ([2]; Homo sapiens, CAPAN-1, 120 h) | IC50 (KRAS G12C) | IC50 (KRAS G12D) | IC50 (KRAS G12S) | IC50 (KRAS G12V) | IC50 (KRAS G13C) | IC50 (KRAS G13D) | IC50 (KRAS WT) | IC50 (NRAS G12C) | IC50 (NRAS WT)
< 5 µM: EC50 ([4]; Homo sapiens)

CCn1c(-c2cccnc2[C@H](C)OC)c2c3cc(ccc31)-c1cc(O)cc(c1)C[C@H](NC(=O)[C@H](C(C)C)N(C)C(=O)[C@H]1OCC[C@H]1N)C(=O)N1CCC[C@H](N1)C(=O)OCC(C)(C)C2 [Compound A420]
0.01 to 0.1 µM: IC50 (KRAS G12C) | IC50 (KRAS G13C) | IC50 (NCI-H358 (K-Ras G12C); Homo sapiens, NCI-H358, 120 h)
0.1 to 1 µM: IC50 [1] | IC50 ([2]; Homo sapiens, CAPAN-1, 120 h) | IC50 (KRAS G12D) | IC50 (KRAS G12S) | IC50 (KRAS G12V) | IC50 (KRAS G13D) | IC50 (KRAS WT) | IC50 (NRAS G12C) | IC50 [3]

(2S)—N-[(8S,14S)-22-ethyl-4-hydroxy-18, 18-dimethyl-21-[6-(4-methylpiperazin-1-yl) pyridin-3-yl]-9,15-dioxo-16-oxa-10,22,28-triazapentacyclo [18.5.2.1^2,6.1^10,14.0^23,27]nonacosa-1 (26), 2,4,6 (29), 20,23 (27),24-heptaen-8-yl]-3-methyl-2-{N-methyl-1-[(3S)-1-(prop-2-enoyl) pyrrolidin-3-yl]formamido}butanamide [Compound A89]
0.01 to 0.1 µM: IC50 (KRAS G13C) | IC50 (KRAS Q61H) | IC50 (NCI-H358 (K-Ras G12C))
1 to 10 µM: IC50 [2]
0.1 to 1 µM: IC50 (KRAS G12C) | IC50 (KRAS G12D) | IC50 (KRAS G12S) | IC50 (KRAS G12V)
< 5 µM: EC50 [4]
